Test results published in patent publication US20260365696A1, “INHIBITORS OF PTP1B / NCK1 INTERACTION AND METHODS OF MAKING AND USING SAME” (Radella Pharmaceuticals LLC, priority 2023, published 2026).
Non-standard residues stand in square brackets, D forms with d. Residues, ends and D or L forms follow the SMILES beside them. pGlu = O=C1CC[C@@H](C(=O)O)N1

Target: T1, SH3-2 domain of NCK1 (Homo sapiens, UniProt P16333)
T1 construct: To amplify the NCK1 SH3-2 domain, the primers; 10xHis tag with TEV site (vector pSF-OXB20-NH2-10HIS) (N, cleaved yes); made in house; host or cells: E. coli C43(DE3)
Experiment: Isothermal titration calorimetry (ITC) binding to NCK1 SH3-2 domain
Details: ITC, 25 °C, pH 8.0
From the text: Human PTP1B cDNA (NM_002827) and human NCK1 cDNA (NM 006153) were obtained (Origene, MD, USA). PTP1B Primers were designed to amplify the ORFs with added homology to the cut vector (EcoRI-digested pSF-OXB20-NH2-10HIS) in the forward primer sequence. To amplify full-length PTP1B, the primers ptp1b_FL_fwd ([…]) (SEQ ID NO: 159) and ptp1b_FL_rev ([…]) (SEQ ID NO: 160) were used. To amplify truncations of PTP1B, the following primer pairs were used: ptp1b_FL-Fwd and one of Ptplb_323stop_rev (gtgcaggaggagttcgaatt[…]) (SEQ ID NO: 161), ptp1b_344stop_rev ([…]) (SEQ ID NO: 162) or ptp1b_278stop_rev([…]) (SEQ ID NO: 163). To amplify the NCK1 SH3-2 domain, the primers ncklsh32_fwd ([…]) (SEQ ID NO: 164) and ncklsh32_rev ([…]) (SEQ ID NO: 165) were used. The amplified fragments were purified using a DNA clean-up kit according to manufacturer's instructions (QIAquick PCR purification kit, Qiagen).
To produce and purify fusion proteins, a culture was inoculated with 1% of overnight-cultured inoculum. Protein expression was carried out under the conditions described above, scaled up as necessary. Cells expressing the recombinant proteins were harvested in 50 mL tubes by centrifugation and stored at −80 °C. Cells containing the expressed gene product were thawed over ice and resuspended in Extraction buffer (10 mM Tris, pH 7.4 or 10 mM Sodium Phosphate, pH 8.0; 300 mM NaCl, 1 mM DTT or TCEP; 0-10% glycerol and 1 μg lysozyme) and sonicated over ice (4 °C) for 3 min total using pulses of 5 s with 15 s intervals, using a wide probe at 15 amplitude microns (Soniprep 150, MSE). Insoluble material was removed from the lysate by centrifugation at 20K rpm for 20-60 min at 4 °C. Supernatant was filtered through a 0.22 μm PVDF filter membrane and applied to 1-2 5 mL HisTrap FF Crude (Cytiva) prepacked Ni columns and connected to an AKTA explorer. After thorough washing with binding buffer (10 mM Tris, pH 7.4 or 10 mM Sodium Phosphate, pH 8.0; 300 mM NaCl; 1 mM DTT or TCEP and 25 mM Imidazole), protein was eluted using elution buffer (10 mM Tris, pH 7.4 or 10 mM Sodium Phosphate, pH 8.0; 150-300 mM NaCl; 1 mM DTT or TCEP and 250 mM Imidazole). Fractions containing protein of interest were confirmed by SDS PAGE. Protein was diluted with GF buffer (10 mM Tris, pH 7.4 or 10 mM Sodium Phosphate, pH 8.0; 150-300 mM NaCl) and subjected to TEV protease treatment overnight at 4-10 °C. Following proteolytic digestion, HIS-tag and TEV protease were removed by filtration through a clean 5 mL HisTrap FF Crude (Cytiva) prepacked Ni column. Protein was concentrated on a PES ultrafiltration device by centrifugation at 4000 rpm at 4 °C, and protein was polished via a HiPrep S-100 26/60 (Cytiva) using GF buffer (as described above). Purified proteins were concentrated using ultrafiltration, and protein concentration was determined using ultraviolet-visible spectroscopy. The integrity and identity of all proteins were verified by mass spectrographic analysis.
Isothermal titration calorimetry (ITC) was used to determine binding affinities for peptides against the SH3-2 domain of NCK1. Experiments were conducted at 25 °C using either a MicroCal iTC200 or MicroCal PEAQ-ITC calorimeter. The buffer used for all ITC experiments was 10 mM sodium [COMPOUND LEFT OUT] mM sodium chloride (pH=8.0). A series of peptides (concentration 3-7.5 mM) were titrated in to NCK1 SH3-2 domain (concentration 0.125-0.3 mM) using the following conditions: one injection of 0.2 μL followed by 19 injections of 2 μL, 120-150 seconds spacing between injections, at 25 °C. The data were fit using analysis software provided by the manufacturer and affinity values were calculated. The best fitting occurred when the number of sites was between 0.8 and 1.2. The experiments were repeated twice for a total of three times, and the average binding affinity for each peptide was generated. […]

[1] = Alanine scanning of the MD17 15-mer peptide
[2] = substitutions at position 1 of MD18
[3] = Alanine scanning of the MD20 6-mer peptide
[4] = Sliding window peptide analysis

| Kd (Peptide truncation analysis) [µM] | Kd [2] [µM] | also measured | Compound |
| --- | --- | --- | --- |
| > 1000 |  |  | CC(=O)N1CCC[C@H]1C(=O)N[C@@H](CCCCN)C(=O)N[C@@H](CCCNC(=N)N)C(N)=O [MH014, Ac-PKR-NH2] (Ac-Pro-Lys-Arg-NH2) |
| > 1000 |  |  | CC(=O)N1CCC[C@H]1C(=O)N1CCC[C@H]1C(=O)N[C@@H](CCCCN)C(N)=O [MH015, Ac-PPK-NH2] (Ac-Pro-Pro-Lys-NH2) |
| > 1000 |  |  | CC(=O)N[C@@H](CCCNC(=N)N)C(=O)N1CCC[C@H]1C(=O)N1CCC[C@H]1C(=O)N[C@@H](CCCCN)C(N)=O [MH016, Ac-RPPK-NH2] (Ac-RPPK-NH2) |
| > 1000 |  |  | CC(=O)N1CCC[C@H]1C(=O)N1CCC[C@H]1C(=O)N[C@@H](CCCCN)C(=O)N[C@@H](CCCNC(=N)N)C(N)=O [MH017, Ac-PPKR-NH2] (Ac-PPKR-NH2) |
| > 1000 |  |  | CC(=O)N1CCC[C@H]1C(=O)N[C@@H](CCCNC(=N)N)C(=O)N1CCC[C@H]1C(N)=O [MH019, Ac-PRP-NH2] (Ac-Pro-Arg-Pro-NH2) |
| > 1000 |  |  | CC(=O)N[C@@H](CCCNC(=N)N)C(=O)N1CCC[C@H]1C(=O)N1CCC[C@H]1C(N)=O [MH020, Ac-RPP-NH2] (Ac-Arg-Pro-Pro-NH2) |
| > 1000 |  |  | CC(=O)N1CCC[C@H]1C(=O)N[C@@H](CCCNC(=N)N)C(=O)N1CCC[C@H]1C(=O)N1CCC[C@H]1C(N)=O [MH021, Ac-PRPP-NH2] (Ac-PRPP-NH2) |
|  |  | Kd (Modified MD18/MD20 peptides): ≤ 300 µM | N=C(N)NCCC[C@H](NC(=O)[C@H](CCCCN)NC(=O)[C@@H]1CCCN1C(=O)[C@@H]1CCCN1C(=O)[C@H](CCCNC(=N)N)NC(=O)[C@@H]1CCCN1C(=O)[C@@H]1CCC(=O)N1)C(N)=O [MH043, H-Pyr-PRPPKR-NH2] ([pGlu]PRPPKR-NH2) |
|  |  | Kd (Modified MD18/MD20 peptides): > 1000 µM | N=C(N)NCCC[C@H](NC(=O)[C@H](CCCCN)NC(=O)[C@@H]1CCCN1C(=O)[C@@H]1CCCN1C(=O)[C@H](CCCNC(=N)N)NC(=O)[C@@H]1CCC(=O)N1)C(N)=O [MH044, H-Pyr-RPPKR-NH2] ([pGlu]RPPKR-NH2) |
|  |  | Kd (Modified MD18/MD20 peptides): ≤ 300 µM | CCNC(=O)[C@H](CCCNC(=N)N)NC(=O)[C@H](CCCCN)NC(=O)[C@@H]1CCCN1C(=O)[C@@H]1CCCN1C(=O)[C@H](CCCNC(=N)N)NC(=O)[C@@H]1CCCN1C(C)=O [MH045, Ac-PRPPKR-NHEt] (Ac-PRPPKR-NHEt) |
|  |  | Kd (Modified MD18/MD20 peptides): ≤ 300 µM | CCNC(=O)[C@H](CCCNC(=N)N)NC(=O)[C@H](CCCCN)NC(=O)[C@@H]1CCCN1C(=O)[C@@H]1CCCN1C(=O)[C@H](CCCNC(=N)N)NC(=O)[C@@H]1CCCN1C(=O)[C@@H]1CCCN1C(C)=O [MH046, Ac-PPRPPKR-NHEt] (Ac-PPRPPKR-NHEt) |
|  |  | Kd [1]: ≤ 300 µM | Ac-APPEHIPPPPRPPKR-NH2 [MSJ012] |
| ≤ 300 | ≤ 300 | Kd (Modified MD18/MD20 peptides): ≤ 300 µM | Ac-APRPPKR-NH2 [MH047, Ac-APRPPKR-NH2] |
|  |  | Kd [3]: > 1000 µM | Ac-ARPPKR-NH2 [MH008, Ac-ARPPKR-NH2] |
|  | ≤ 300 |  | Ac-CPRPPKR-NH2 [MH070, Ac-CPRPPKR-NH2] |
|  | ≤ 300 |  | Ac-DPRPPKR-NH2 [MH083, Ac-DPRPPKR-NH2] |
|  |  | Kd [4]: > 1000 µM | Ac-EHIPPP-NH2 [MH039, Ac-EHIPPP-NH2] |

| Kd (Peptide truncation analysis) [µM] | Kd [2] [µM] | also measured | Compound |
| --- | --- | --- | --- |
| ≤ 300 |  |  | Ac-EHIPPPPRPPKR-NH2 [MH028] |
|  | ≤ 300 |  | Ac-EPRPPKR-NH2 [MH071, Ac-EPRPPKR-NH2] |
|  | ≤ 300 |  | Ac-FPRPPKR-NH2 [MH073, Ac-FPRPPKR-NH2] |
|  | ≤ 300 |  | Ac-GPRPPKR-NH2 [MH091, Ac-GPRPPKR-NH2] |
|  |  | Kd (N- or C-terminal extensions, 30-mers tested one to three times): ≤ 300 µM | Ac-HEDLEPPPEHIPPPPRPPKR-NH2 [MH090] |
| ≤ 300 |  |  | Ac-HIPPPPRPPKR-NH2 [MH027] |
|  | ≤ 300 |  | Ac-HPRPPKR-NH2 [MH072, Ac-HPRPPKR-NH2] |
|  |  | Kd [4]: > 1000 µM | Ac-IPPPPR-NH2 [MH038, Ac-IPPPPR-NH2] |
| ≤ 300 |  |  | Ac-IPPPPRPPKR-NH2 [MH026] |
|  | ≤ 300 |  | Ac-IPRPPKR-NH2 [MH095, Ac-IPRPPKR-NH2] |
|  | ≤ 300 |  | Ac-KPRPPKR-NH2 [MH103, Ac-KPRPPKR-NH2] |
|  | 300 to 600 |  | Ac-LPRPPKR-NH2 [MH099, Ac-LPRPPKR-NH2] |
|  | ≤ 300 |  | Ac-MPRPPKR-NH2 [MH109, Ac-MPRPPKR-NH2] |
|  | ≤ 300 |  | Ac-NPRPPKR-NH2 [MH069, Ac-NPRPPKR-NH2] |
|  |  | Kd [1]: ≤ 300 µM | Ac-PAPEHIPPPPRPPKR-NH2 [MSJ013] |
|  |  | Kd [3]: ≤ 300 µM | Ac-PAPPKR-NH2 [MH009, Ac-PAPPKR-NH2] |
